# Measurements published in US7427620B2, “Azole derivative useful as antifungal agents with reduced interaction with metabolic cytochromes” (Italfarmaco SPA, priority 2003, dated 2008).
# Read-outs that look alike come from different tables or passages of the source.
# How the values were obtained:
# Aspergillus fumigatus = test: Antifungal activity, liquid phase microdilution (NCCLS M27/M38-P); format: cell-based; set-up: IC50 (minimum concentration to bring about 50% inhibition): unit not given here; conditions: for IC50: Aspergillus fumigatus
# Experimental: (§1) Experiment A: Antifungal Activity of Compounds of the Formula (I)
# (§2) The antifungal activity of the compounds of the formula (I) was determined using various strains of yeast and filamentous fungi. […] Table no.
# Candida albicans [1] = test: as above; format: cell-based
# Experimental: as §1, §2
# CYP3A4 = molecular target: T1, CYP3A4 (Homo sapiens, UniProt P08684); test: Inhibition of human cytochromes, fluorescent substrates; format: in vitro ADME; conditions: isoenzyme (Gentest), 37° C.
# T1 construct: purchased Gentest
# T1 sequence (P08684 whole entry): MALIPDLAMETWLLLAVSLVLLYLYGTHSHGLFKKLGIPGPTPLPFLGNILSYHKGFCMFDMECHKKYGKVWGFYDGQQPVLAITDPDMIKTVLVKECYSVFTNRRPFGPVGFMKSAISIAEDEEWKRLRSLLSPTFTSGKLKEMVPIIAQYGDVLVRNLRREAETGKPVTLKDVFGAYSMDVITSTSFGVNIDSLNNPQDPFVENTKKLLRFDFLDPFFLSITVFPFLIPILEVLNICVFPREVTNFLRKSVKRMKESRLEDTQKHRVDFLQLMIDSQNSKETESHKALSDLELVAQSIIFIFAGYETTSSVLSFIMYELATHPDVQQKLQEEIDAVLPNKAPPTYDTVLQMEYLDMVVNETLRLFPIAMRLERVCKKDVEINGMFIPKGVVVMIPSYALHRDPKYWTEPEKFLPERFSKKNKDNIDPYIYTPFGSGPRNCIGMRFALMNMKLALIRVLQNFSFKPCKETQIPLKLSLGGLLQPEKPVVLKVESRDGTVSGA
# Experimental: (§3) Experiment B: Inhibition of Human Cytochromes by Compounds of the Formula (I)
# (§4) The individual isoenzymes (Gentest) and the respective substrates were incubated in 96 well plates in buffer containing […] at 37° C. in the presence or absence of the compound under investigation. […] The degree of inhibition of each individual isoenzyme by known inhibitors was also assessed as a positive control.
# CYP2D6 = molecular target: T2, CYP2D6 (Homo sapiens, UniProt P10635); test: as above; format: in vitro ADME; conditions: isoenzyme (Gentest), 37° C.
# T2 construct: purchased Gentest
# T2 sequence (P10635 whole entry): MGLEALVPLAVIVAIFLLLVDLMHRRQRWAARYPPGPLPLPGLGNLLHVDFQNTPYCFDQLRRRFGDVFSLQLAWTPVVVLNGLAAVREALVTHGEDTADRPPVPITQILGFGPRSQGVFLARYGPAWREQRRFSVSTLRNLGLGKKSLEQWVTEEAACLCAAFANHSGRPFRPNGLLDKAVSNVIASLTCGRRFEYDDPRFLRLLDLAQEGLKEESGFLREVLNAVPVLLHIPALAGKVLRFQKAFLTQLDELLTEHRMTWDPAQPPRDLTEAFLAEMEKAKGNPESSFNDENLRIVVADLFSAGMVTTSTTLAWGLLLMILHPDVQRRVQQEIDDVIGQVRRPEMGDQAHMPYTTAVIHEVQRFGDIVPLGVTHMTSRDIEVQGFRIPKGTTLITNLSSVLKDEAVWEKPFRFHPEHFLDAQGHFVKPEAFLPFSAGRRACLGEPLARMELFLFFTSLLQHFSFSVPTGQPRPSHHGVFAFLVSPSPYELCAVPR
# Experimental: as §3
# as §4, with “Inhibition of the enzymatic activity of the most significant isoforms of human cytochromes by the compounds of the formula (I) was measured by using specific substrates which become fluorescent as a result of the metabolic action of a particular cytochrome isoform. The individual” for “The individual”
# CYP1A2 = molecular target: T3, CYP1A2 (Homo sapiens, UniProt P05177); test: as above; format: in vitro ADME; conditions: isoenzyme (Gentest), 37° C.
# T3 construct: purchased Gentest
# T3 sequence (P05177 1-516): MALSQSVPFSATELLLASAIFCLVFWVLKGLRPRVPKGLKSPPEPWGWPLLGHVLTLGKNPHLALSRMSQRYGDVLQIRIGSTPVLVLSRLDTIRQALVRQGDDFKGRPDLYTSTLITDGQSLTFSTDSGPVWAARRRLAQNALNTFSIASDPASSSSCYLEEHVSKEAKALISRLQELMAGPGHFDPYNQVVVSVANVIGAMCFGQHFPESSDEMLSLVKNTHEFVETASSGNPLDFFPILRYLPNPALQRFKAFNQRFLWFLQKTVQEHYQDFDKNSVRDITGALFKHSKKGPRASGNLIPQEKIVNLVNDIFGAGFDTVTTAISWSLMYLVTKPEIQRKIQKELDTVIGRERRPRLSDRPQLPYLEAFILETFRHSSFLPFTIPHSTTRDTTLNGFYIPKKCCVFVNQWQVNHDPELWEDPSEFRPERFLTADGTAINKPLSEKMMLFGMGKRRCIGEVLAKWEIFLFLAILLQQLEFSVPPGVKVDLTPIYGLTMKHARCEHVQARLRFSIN
# Experimental: as §3
# as §4, with “Inhibition of the enzymatic activity of the most significant isoforms of human cytochromes by the compounds of the formula (I) was measured by using specific substrates which become fluorescent as a result of the metabolic action of a particular cytochrome isoform. The individual” for “The individual”
# CYP2C19 = molecular target: T4, CYP2C19 (Homo sapiens, UniProt P33261); test: as above; format: in vitro ADME; conditions: isoenzyme (Gentest), 37° C.
# T4 construct: purchased Gentest
# T4 sequence (P33261 whole entry): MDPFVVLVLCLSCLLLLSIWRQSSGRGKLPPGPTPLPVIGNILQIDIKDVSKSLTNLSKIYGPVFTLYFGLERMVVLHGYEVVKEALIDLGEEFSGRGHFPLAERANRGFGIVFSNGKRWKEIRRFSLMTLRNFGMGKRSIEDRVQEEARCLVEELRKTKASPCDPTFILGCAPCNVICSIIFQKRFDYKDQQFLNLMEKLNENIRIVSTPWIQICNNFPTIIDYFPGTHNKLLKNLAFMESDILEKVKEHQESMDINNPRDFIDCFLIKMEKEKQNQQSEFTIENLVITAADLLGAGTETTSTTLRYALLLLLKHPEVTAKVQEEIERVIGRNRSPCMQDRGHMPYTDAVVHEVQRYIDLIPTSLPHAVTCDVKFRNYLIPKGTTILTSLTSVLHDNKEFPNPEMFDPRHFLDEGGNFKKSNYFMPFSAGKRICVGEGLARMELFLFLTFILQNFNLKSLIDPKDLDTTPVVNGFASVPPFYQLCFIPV
# Experimental: as §3
# as §4, with “Inhibition of the enzymatic activity of the most significant isoforms of human cytochromes by the compounds of the formula (I) was measured by using specific substrates which become fluorescent as a result of the metabolic action of a particular cytochrome isoform. The individual” for “The individual”
# CYP2C9 = molecular target: T5, CYP2C9 (Homo sapiens, UniProt P11712); test: as above; format: in vitro ADME; conditions: isoenzyme (Gentest), 37° C.
# T5 construct: purchased Gentest
# T5 sequence (P11712 whole entry): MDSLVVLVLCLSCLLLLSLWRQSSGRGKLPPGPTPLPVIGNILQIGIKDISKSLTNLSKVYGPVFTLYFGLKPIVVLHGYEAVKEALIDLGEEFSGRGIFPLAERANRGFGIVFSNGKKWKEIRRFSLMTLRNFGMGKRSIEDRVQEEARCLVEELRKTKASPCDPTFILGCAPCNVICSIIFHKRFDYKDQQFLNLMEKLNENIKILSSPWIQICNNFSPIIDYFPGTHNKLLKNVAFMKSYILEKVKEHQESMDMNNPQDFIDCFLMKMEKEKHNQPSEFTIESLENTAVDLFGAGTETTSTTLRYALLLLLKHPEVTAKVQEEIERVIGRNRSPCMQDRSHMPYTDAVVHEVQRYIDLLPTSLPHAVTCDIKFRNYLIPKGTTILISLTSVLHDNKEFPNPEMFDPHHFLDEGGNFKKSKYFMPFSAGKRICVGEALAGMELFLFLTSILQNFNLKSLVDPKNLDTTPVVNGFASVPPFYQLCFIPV
# Experimental: as §3
# as §4, with “Inhibition of the enzymatic activity of the most significant isoforms of human cytochromes by the compounds of the formula (I) was measured by using specific substrates which become fluorescent as a result of the metabolic action of a particular cytochrome isoform. The individual” for “The individual”
# Candida glabrata = test: Antifungal activity, liquid phase microdilution (NCCLS M27/M38-P); format: cell-based; conditions: for IC50 (minimum concentration to bring about 50% inhibition): Candida glabrata strain 02-0902
# Experimental: as §1, §2
# Candida parapsilosis = test: as above; format: cell-based; conditions: for IC50 (minimum concentration to bring about 50% inhibition): Candida parapsilosis strain ATCC22019
# Experimental: as §1, §2
# Candida albicans [2] = test: Mouse model of systemic candidiasis, survival; format: in vivo, CD1 mice; conditions: 50 mg/kg/day orally (25 mg/kg twice daily) for 10 days
# Experimental: Experiment C: Study of the Efficacy of Compounds of the Formula (I) in a Mouse Model of Systemic Candidiasis.
# The C. albicans isolate was cultured for 24 h in yeast dextrose broth. The blastospores were recovered by centrifugation, repeatedly washed in sterile saline solution and the inoculum adjusted to the desired concentration. The inoculum was verified by a subsequent count of CFU/ml on Sabouraud plates.
# The mice were then inoculated intravenously (0.2 ml/mouse).
# 24 hours after inoculation with C. albicans, the animals were randomised into the following treatment groups (10 mice/group): • 1. […] Compound under investigation: 50 mg/kg/day (two 25 mg/kg treatments twice daily at 12 hour intervals) • 3. Compound under investigation; 10 mg/kg/day (two 5 mg/kg treatments twice daily at 12 hour intervals) • 4. Control (placebo)
# The compounds were administered orally (suspension in PEG 200, 0.2 ml/mouse) for 10 consecutive days and the animals were observed until day 30. The survival curves between the various treatment groups and between these groups and the control group were evaluated using the Kaplan-Meier method.
# [3] = Aspergillus fumigatus strain 34
# [4] = Aspergillus fumigatus strain 99-2135
Compound,IC50 (minimum concentration to bring about 50% inhibition) (Candida albicans [1]; Candida albicans strain 21),IC50 (CYP3A4),IC50 (CYP2D6),IC50 (CYP1A2),IC50 (CYP2C19),IC50 (CYP2C9),IC50 (minimum concentration to bring about 50% inhibition) (Aspergillus fumigatus; [4]),IC50 (minimum concentration to bring about 50% inhibition) (Candida glabrata),IC50 (minimum concentration to bring about 50% inhibition) (Candida albicans [1]; Candida albicans strain gen-45),IC50 (minimum concentration to bring about 50% inhibition) (Candida parapsilosis),also measured
"CCC(C)n1ncn(-c2ccc(N3CCN(c4ccc(OCC5COC(Cn6cncn6)(c6cccc[n+]6[O-])O5)cc4)CC3)cc2)c1=O (racemic) [Example 17, cis(±)-4-{4-[4-{4-[2-(1-oxy-pyridin-2-yl)-2-(1H-1,2,4-triazol-1-yl-methyl)-1,3dioxolan-4-yl-methoxy]phenyl}piperazin-1-yl]-phenyl}-2-[(1,R/S)-1-methylpropyl]-2,4-dihydro-3H-1,2,4-triazol-3-one]",38000 µg/mL,–,–,–,–,–,–,–,–,–,IC50 (minimum concentration to bring about 50% inhibition) (Aspergillus fumigatus; [3]): >64
"CCC(C)n1ncn(-c2ccc(N3CCN(c4ccc(OCC5COC(Cn6cncn6)(c6cc[n+]([O-])cc6)O5)cc4)CC3)cc2)c1=O (racemic) [Example 18, cis(±)-4-{4-[4-{4-[2-(1-oxy-pyridin-4-yl)-2-(1H-1,2,4-triazol-1-yl-methyl)-1,3-dioxolan-4-yl-methoxy]phenyl}piperazin-1-yl]phenyl}-2-[(1,R/S)-1-methylpropyl]-2,4-dihydro-3H-1,2,4-triazol-3-one]",78000 µg/mL,–,–,–,–,–,–,–,–,–,–
"CC[C@H](C)n1ncn(-c2ccc(N3CCN(c4ccc(OC[C@H]5CO[C@@](Cn6cncn6)(c6ccccn6)O5)cc4)CC3)cc2)c1=O (relative stereo) [Example 13, cis(−)-4-{4-[4-{4-[2-(pyridin-2-yl)-2-(1H-1,2,4-triazol-1-yl-methyl)-1,3-dioxolan-4-yl-methoxy]phenyl}piperazin-1-yl]-phenyl}-2-[(1,S)-1-methylpropyl]-2,4-dihydro-3H-1,2,4-triazol-3-one]",–,0.46 ± 0.37 µM,> 100 µM,> 100 µM,28.4 ± 8.8 µM,27.2 ± 6.7 µM,0.25,1000 µg/mL,≦0.03 mg/ml,≦0.03 mg/ml,–
"CC[C@H](C)n1ncn(-c2ccc(N3CCN(c4ccc(OC[C@H]5CO[C@@](Cn6cncn6)(c6ccccn6)O5)cc4)CC3)cc2)c1=O (relative stereo) [Example 14, cis(+)-4-{4-[4-{4-[2-(pyridin-2-yl)-2-(1H-1,2,4-triazol-1-yl-methyl)-1,3-dioxolan-4-yl-methoxy]phenyl}piperazin-1-yl]-phenyl}-2-[(1,S)-1-methylpropyl]-2,4-dihydro-3H-1,2,4-triazol-3-one]",–,0.19 ± 0.08 µM,> 100 µM,> 100 µM,27.9 ± 0.8 µM,40 ± 11.2 µM,0.5,2000 µg/mL,≦0.03 mg/ml,0.06,–
"CC[C@@H](C)n1ncn(-c2ccc(N3CCN(c4ccc(OC[C@H]5CO[C@@](Cn6cncn6)(c6ccccn6)O5)cc4)CC3)cc2)c1=O (relative stereo) [Example 15, cis(−)-4-{4-[4-{4-[2-(pyridin-2-yl)-2-(1H-1,2,4-triazol-1-yl-methyl)-1,3-dioxolan-4-yl-methoxy]phenyl}piperazin-1-yl]-phenyl}-2-[(1,R)-1-methylpropyl]-2,4-dihydro-3H-1,2,4-triazol-3-one]",–,0.41 ± 0.13 µM,84 ± 39.4 µM,> 100 µM,25.5 ± 4.3 µM,26.1 ± 1.3 µM,0.12,250 µg/mL,≦0.03 mg/ml,≦0.03 mg/ml,–
"CC[C@@H](C)n1ncn(-c2ccc(N3CCN(c4ccc(OC[C@H]5CO[C@@](Cn6cncn6)(c6ccccn6)O5)cc4)CC3)cc2)c1=O (relative stereo) [Example 16, cis(+)-4-{4-[4-{4-[2-(pyridin-2-yl)-2-(1H-1,2,4-triazol-1-yl-methyl)-1,3-dioxolan-4-yl-methoxy]phenyl}piperazin-1-yl]-phenyl}-2-[(1,R)-1-methylpropyl]-2,4-dihydro-3H-1,2,4-triazol-3-one]",–,0.29 ± 0.01 µM,> 100 µM,> 100 µM,43.1 ± 15 µM,37.5 ± 6.8 µM,0.25,500 µg/mL,≦0.03 mg/ml,0.06,–
"CCC(C)n1ncn(-c2ccc(N3CCN(c4ccc(OCC5COC(Cn6cncn6)(c6ccc(Cl)cc6Cl)O5)cc4)CC3)cc2)c1=O (stereo not shown) [Itraconazole, reference compound]",–,–,> 100 µM,> 100 µM,0.2 ± 0.06 µM,1.6 ± 0.2 µM,–,–,–,–,"Surviving mice 21 days after infection (Candida albicans [2]): 0%; Average survival (days) ± S.D. (Candida albicans [2]; observed until day 30): 9.2 ± 1.1 days; IC50 (Aspergillus fumigatus; read-out: IC50 (minimum concentration to bring about 50% inhibition), Aspergillus fumigatus strain 34): 1000 µg/mL; IC50 (Aspergillus fumigatus; read-out: IC50 (minimum concentration to bring about 50% inhibition), Aspergillus fumigatus strain 99-2135): 250 µg/mL; IC50 (Candida glabrata; Nakaseomyces glabratus, read-out: IC50 (minimum concentration to bring about 50% inhibition)): 500 µg/mL; IC50 (Candida albicans [1]; Candida albicans, read-out: IC50 (minimum concentration to bring about 50% inhibition)): ≤ 30 µg/mL; IC50 (Candida parapsilosis; Lodderomyces parapsilosis, ATCC22019, read-out: IC50 (minimum concentration to bring about 50% inhibition)): 120 µg/mL"
"cis(±)-4-{4-[4-{4-[2-(pyridin-3-yl)-2-(1H-1,2,4-triazol-1-yl-methyl)-1,3-dioxolan-4-yl-methoxy]phenyl}-1-piperazinyl]-phenyl}-2-(1-(R,S)methylpropyl)-2,4-dihydro-3H-1,2,4-triazol-3-one [Example 11]",–,0.7 ± 0.1 µM,–,–,31.5 ± 3.9 µM,64.2 ± 6.2 µM,–,–,–,–,–
"cis(±)-4-{4-[4-{4-[2-(pyridin-4-yl)-2-(1H-1,2,4-triazol-1-yl-methyl)-1,3-dioxolan-4-yl-methoxy]phenyl}-1-piperazinyl]-phenyl}-2-(1-(R,S)methylpropyl)-2,4-dihydro-3H-1,2,4-triazol-3-one [Example 10]",39000 µg/mL,–,–,–,–,–,–,–,–,–,IC50 (minimum concentration to bring about 50% inhibition) (Aspergillus fumigatus; [3]): 8
"cis(±)-4-{4-[4-{4-[2-(thiazol-2-yl)-2-(1H-1,2,4-triazol-1-yl-methyl)-1,3-dioxolan-4-yl-methoxy]phenyl}-1-piperazinyl]-phenyl}-2-(1-(R,S)methylpropyl)-2,4-dihydro-3H-1,2,4-triazol-3-one [Example 12]",–,0.3 ± 0.1 µM,–,–,10.9 ± 0.4 µM,18.2 ± 0.3 µM,–,–,–,–,–
